In ChEMBL document CHEMBL1147525, “Structure-activity relationships of untenone A and its derivatives for inhibition of DNA polymerases” (Bioorg Med Chem Lett, 2004):

Key:
Nucleic Acid [1] = experiment: Inhibitory activity against mammalian DNA polymerase alpha; format: nucleic-acid assay
[2] = molecular target: DNA nucleotidylexotransferase (Homo sapiens, UniProt P04053); experiment: Inhibitory activity against human terminal deoxynucleotidyltransferase
Nucleic Acid [3] = experiment: Inhibitory activity against mammalian DNA polymerase beta; format: nucleic-acid assay

DNA nucleotidylexotransferase, sequence (P04053 whole entry): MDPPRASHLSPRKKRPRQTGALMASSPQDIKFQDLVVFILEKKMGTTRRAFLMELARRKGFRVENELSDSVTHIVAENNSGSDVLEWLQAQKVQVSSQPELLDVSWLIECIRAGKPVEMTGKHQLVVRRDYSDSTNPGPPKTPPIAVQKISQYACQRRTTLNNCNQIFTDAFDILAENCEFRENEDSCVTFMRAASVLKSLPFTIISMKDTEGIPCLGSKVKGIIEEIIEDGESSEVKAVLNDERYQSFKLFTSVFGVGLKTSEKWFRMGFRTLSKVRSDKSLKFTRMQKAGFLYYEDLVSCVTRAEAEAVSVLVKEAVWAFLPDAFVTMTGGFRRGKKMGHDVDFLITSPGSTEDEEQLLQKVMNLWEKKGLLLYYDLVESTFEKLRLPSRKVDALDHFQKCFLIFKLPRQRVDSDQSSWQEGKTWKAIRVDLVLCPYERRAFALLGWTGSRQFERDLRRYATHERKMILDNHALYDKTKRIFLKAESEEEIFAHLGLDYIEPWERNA

CCCCCCCCCCCCCCCC[C@]1(O)C=CC(=O)C1 (racemic)
IC50 (Nucleic Acid [1]): > 200 µM
IC50 [2]: > 200 µM
IC50 (Nucleic Acid [3]): > 200 µM

CCCCCCCCCCCCCCCC[C@]1(OCOC)C=CC(=O)[C@H]1C(=O)OC (racemic)
IC50 (Nucleic Acid [1]): 5.9 µM
IC50 [2]: 18 µM
IC50 (Nucleic Acid [3]): 9.3 µM

CCCCCCCCCCCCCCCCC1=C(C(=O)OC)C(=O)CC1
IC50 (Nucleic Acid [1]): 17 µM
IC50 [2]: 129 µM
IC50 (Nucleic Acid [3]): 107 µM

CCCCCCCCCCCCCCCC[C@]1(O)C=CC(=O)[C@H]1C(=O)OC (racemic) [UNTENONE A]
IC50 (Nucleic Acid [1]): 4.3 µM
IC50 [2]: 16 µM
IC50 (Nucleic Acid [3]): 57 µM

CCCCCCCCCCCCCCCC[C@H]1C=CC(=O)[C@@H]1C(=O)OC (racemic)
IC50 (Nucleic Acid [1]): 20 µM
IC50 [2]: 84 µM
IC50 (Nucleic Acid [3]): 90 µM

CCCCCCCCCCCCCCCCC1=C[C@H](C(=O)O)[C@H]2CC(C(=O)O)=C(CCCCCCCCCCCCCCCC)[C@H]2[C@H]1C(=O)OC (racemic)
IC50 (Nucleic Acid [1]): 1.9 µM
IC50 [2]: 2.5 µM
IC50 (Nucleic Acid [3]): 3.2 µM
